According to US7129250B2, “Neuroprotective and anti-proliferative compounds” (Aegera Therapeutics Inc., priority 2000, dated 2006):

How the values were obtained:
CGNs [1] = test: High/Low Potassium (HK/LK) assay in CGNs; assay type: cell-based; conditions: for IC50: Mus musculus, HK/LK switch, drug 24 h pre-treatment, assayed 16 h after media change, concentration at which cell death was inhibited by 50%
Description: Cultured CGNs which are maintained in a medium containing 26 mM potassium (high K^+ or HK) undergo cell death when the medium is changed to one containing 5 mM potassium (low K^+ or LK). HK maintains the cells in a highly polarized state, duplicating that of fully innervated neurons. The switch to LK (5 mM is more representative of physiological conditions) results in depolarization of the cells, mimicking the loss of neuronal conductivity. […] As these killer genes are turned on by various types of neuronal insult as observed in AD, PD, and stroke, HK/LK is a general in vitro model for neuronal degradation, blanketing a wide range of neurodegenerative diseases. Compounds that protect against HK/LK in CGNs would therefore be efficacious in treatment and/or prevention of various neurodegenerative disease states.
CGNs were harvested from day 8/9 post-natal CD1 mice, plated on Poly-D-Lycine coated plates and incubated for 6 days at 37° C., with […] potassium, under 5% CO2. Pretreated cells were treated with drug 24 hours prior to changing the media to one containing […] potassium and drug. Cells were assayed 16 hours after the final media change using cell TITER96 (Promega).

CGNs [2] = test: Glutamate Killing of CGNs; assay type: cell-based, CD1 mice; conditions: glutamate 100 uM
Description: Glutaminergic neurons secrete the neurotransmitter glutamate as a part of normal cell signaling processes. Intracellular glutamate levels are regulated by glial cell uptake and conversion to glutamine. Under conditions of oxidative stress, as observed in various neurodegenerative diseases such as stroke, ALS, PD, and HD, glutaminergic neurons release massive amounts of glutamate into the […] fluid, overwhelming the surrounding cells. Stimulation of both NMDA and non NMDA-type glutamate excitory receptors leads to sustained depolarization of postsynaptic dendrosomal membranes, increased membrane permeability, and impaired ion homeostasis, all leading to either apoptotic or necrotic cell death.
CGNs were harvested from day 8/9 post-natal CD1 mice, plated on Poly-D-Lycine coated plates and incubated for 6 days at 37° C. under 5% CO2. Cells were pretreated with drug 24 hours prior to glutamate (100 uM) and drug addition.

SHSY-5Y cells = test: Etoposide Killing of SHSY-5Y; assay type: cell-based; conditions: etoposide 32 uM, drug 1 μM
Description: SHSY-5Y cells were grown in growth media. Cells are placed at 50,000 cells per 96 well. Four days latter the cells were treated with drug for 48 hours prior to etoposide (32 uM) treatment. On day 6 media was changed to that containing etoposide and drug for 4 hours, at which point the media was changed to media containing drug only. Cells are allowed to survive overnight and then assessed for viability with metabolic activity measured (WST-1-Beohringer Mannheime), as shown in TABLE 13.

CGNs [3] = test: Ceramide Killing of CGNs; assay type: cell-based, CD1 mice; conditions: ceramide 100 uM
Description: Ceramide is a native […] found in most mammalian and human cells. The upregulation of endogenous ceramide has been linked to caspase 1 (ICE) induced apoptosis (Suzuki, A. et al. Exp. Cel. Res., 1997, 233, 41). In a similar fashion, the addition of ceramide to cultured CGNs results in caspase induced apoptosis, and is therefore considered an effective in vitro model for the various neurodegenerative diseases described above, which are characterized by caspase induced apoptosis, as observed in stroke models. Addition of selected compounds of the formula I through III, 24 hours prior to the addition of ceramide, to cultured CGNs provided protection against apoptosis, with 10 to 20% of the cells being saved at 1–10 μM drug concentrations (see Example 114).
CGNs were harvested from day 8/9 post-natal CD1 mice, plated on Poly-D-Lycine coated plates and incubated for 6 days at 37° C. under 5% CO2. Cells were pretreated with drug 24 hours prior to ceramide (100 uM) and drug addition.

CGNs [4] = test: β-Amyloid Aggregation Assay in CGNs; assay type: cell-based; conditions: for IC50: Aβ 25 μM, assayed 5 days after Aβ addition
Description: Various mechanisms have been put forward in order to account for the neurotoxicity related to extracellular Aβ fibril formation. […] Regardless of the mode of action, extracellular Aβ fibril formation acts as an effective apoptotic trigger for neuronal cells and serves as an in vitro model for various neurodegenerative diseases characterized by extracellular protein fibril formation, typified by diseases such as AD and PD.
CGNs were harvested from day 8/9 post-natal CD1 mice, plated on Poly-D-Lycine coated plates and incubated for 6 days at 37° C. under 5% CO2. Pretreated cells were treated with drug 24 hours prior to A-β (25 μM) and drug addition.

Cortical neurons = test: Cisplatin Killing of Cortical Neurons; assay type: cell-based, Sprague-Dawley rats
Description: Cortical neurons were harvested from day E18 female Sprague-Dawley rats, plated on Poly-L-Lycine coated plates and incubated for 14 days at 37° C. under 5% CO2. […]

CGNs [5] = test: Cisplatin Killing of CGNs; assay type: cell-based, CD1 mice
Description: Cisplatin has been used extensively in the treatment of various cancers. One dosblimiting side effect of this chemotherapeutic agent is related to hearing loss as a result of its toxicity to auditory neurons and loss of feeling in the extremities. Cisplatin induces apoptosis to both cultured CGN and cortical neurons.
CGNs were harvested from day 8/9 post-natal CD1 mice, plated on Poly-D-Lycine coated plates and incubated for 6 days at 37° C. under 5% CO2. The cells were treated with media containing drug and cisplatin […].

[6] = test system: OV 2008 ovarian cancer cells; test: Cisplatin induced apoptosis of OV 2008 ovarian cancer cells; assay type: cell-based; conditions: cisplatin (20 μg/mL)
Description: Regardless of its neuroprotective capability, if a compound interferes with chemotherapy by protecting cancer cells from an apoptotic stimuli then the compound is of less value as an anti-cancer therapeutic.

Caspase 3 = Caspase 3 induction during HK/LK killing of CGNs; assay type: cell-based, CD1 mice
Description: Caspase 3 induction ultimately leads to cell death and is observed in any number of neurodegenerative diseases. Compounds which inhibit caspase 3 induction represent potent therapies for various neurodegenerative diseases.

SCG neurons = test: NGF Withdrawal Killing of SCG Neurons; assay type: cell-based, Sprague-Dawley rats; conditions: Rattus norvegicus, Neuron, assayed 48 hours after drug
Description: Cultured Superiour Cervical Ganglion (SCG) neurons of the PNS which have been sustained in media containing Neuron Growth Factor (NGF) undergo apoptotic cell death upon removal of the NGF from the cellular medium. Loss of neuronal trofin support has been implicated in various neurodegenerative disease states in the PNS, such as diabetic neuropathy and neuropahies related to chemotherapeutic and anti-HIV drug treatment.
SCG neurons were harvested from day 1 post natal Sprague-Dawley rats, plated on collagen coated plates and incubated for 5 days in the presence of 50 ng/mL NGF at 37° C. under 5% CO2. The cells were washed with NGF free media, 4 times at 1 hour intervals, at which time drug was added.

[7] = test system: rat spinal cord ex-plants; test: Spinal Cord Explant neurite extension; assay type: cell-based; conditions: 3 μM; ex-plants on growth inhibitory substrates
Description: The inability of neurites to regenerate or overcome stimuli which inhibit or prevent the formation of normal neuritic extensions and connections is characteristic of the conditions found in spinal cord and related injuries, AD and the like. Select compounds of this invention promote the formation of neuritic extension in spinal cord ex-plants which have been cultured on growth inhibitory substrates.
Spinal cords from P1 rat pups were isolated for neurite extension analysis. Lumbar cord was separated in two along the spinal canal. […] lateral sections were obtained with a McIlwain tissue chopper. Slices were cultured in poly L-lysine coated 24 well plates in Neurobasal media supplemented with B27, penicillin, streptomycin, and glutamate. Test compounds were added to the media and neurite extension out of the explant onto the poly L-coated plastic was assessed after 7 days in culture. Neurites were visualized either by phase contrast microscopy or by beta 3 tubulin immunofluorescence.

## CCSCc1ccc2c(c1)c1c3c(c4c5cc(CSCC)ccc5n5c4c1n2[C@H]1C[C@](O)(C(=O)OC)[C@]5(C)O1)CNC3=O [CEP 1347, reference compound]
CGNs [1]
  IC50: 1000 nM
CGNs [1]; higher doses
  toxicity: toxic at higher doses
CGNs [2]; 300 nM, (250 nM in source)
  % CGN Survival: 50.0 (250 nM) %
CGNs [2]; drug 100 nM
  % CGN Survival: 0%
CGNs [2]; drug 1 μM
  % CGN Survival: 7.0%
SHSY-5Y cells
  % SHSY-5Y cell survival: 12.5%
CGNs [3]; 300 nM, (250 nM in source)
  % CGN Survival: 0 (250 nM) %
CGNs [3]; drug 1 μM
  % CGN Survival: 1.8%
CGNs [4]; concentrations below 300 nM
  protection: > 10%
Cortical neurons; drug at 0.3 μM, cisplatin
  % Protection: 32%

## O=C1NC(=O)C2=C1c1c(n(CCO)c3ccc(OCc4ccccc4)cc13)C1Cc3ccccc3N21 (stereo not drawn) [Compound 36]
CGNs [5]; 300 nM drug, cisplatin
  survival: 80%
CGNs [5]; cisplatin induced apoptosis in CGNs
  IC50: 100 nM
[6]
  protection of cancer cells from cisplatin induced apoptosis: did not protect
Cortical neurons; drug 10 μM 24 h pre-treatment
  % Protection at 10 μM: 9%

## O=C1NC(=O)c2c1c1c3ccccc3[nH]c1c1cc3ccccc3n21 [Compound 42]
CGNs [1]
  IC50: 3000 nM
CGNs [5]; Mus musculus, assayed 48 hours after final drug treatment
  IC50: 3000 nM
Caspase 3; Mus musculus
  inhibition at 10 µM: 50%
CGNs [3]; drug 1 μM
  % CGN Survival: 20.0%
CGNs [3]; drug 10 μM
  % CGN Survival: 18.0%
SCG neurons
  IC50: 20000 nM
CGNs [4]; Mus musculus, 120 h
  IC50: 1000 nM

## O=C1C=C(c2c[nH]c3ccc(OCc4ccccc4)cc23)C(=O)N1 [Compound 64, 3-(1-H-5-benzyloxyindol-3-yl)-1H-pyrrole-2,5-dione]
CGNs [5]; assayed 48 hours after final drug treatment
  IC50: 3000 nM
CGNs [2]; drug 100 nM
  % CGN Survival: 0%
CGNs [2]; drug 1 μM
  % CGN Survival: 4.0%
CGNs [2]; drug 10 μM
  % CGN Survival: 32.5%
Caspase 3; 10 μM
  inhibition of caspase 3 induction: 33%
CGNs [3]; drug 1 μM
  % CGN Survival: 18.0%
CGNs [3]; drug 10 μM
  % CGN Survival: 5.1%
CGNs [4]
  IC50: 1000 nM

## O=C1NCC2=C1N1c3ccccc3CC1c1c2c2ccccc2n1CCCO (stereo not drawn) [Compound 176]
[7]
  formation of neuritic extensions: induce the formation of neuritic extensions
